Results reported in EP3623369A1, “NOVEL MORPHOLINYL AMINE COMPOUNDS FOR THE TREATMENT OF AUTOIMMUNE DISEASE” (F. Hoffmann-La Roche AG, priority 2018, dated 2020).

Target: T1, hTLR7 (Homo sapiens, UniProt Q9NYK1)
T1 sequence (Q9NYK1 27-1049): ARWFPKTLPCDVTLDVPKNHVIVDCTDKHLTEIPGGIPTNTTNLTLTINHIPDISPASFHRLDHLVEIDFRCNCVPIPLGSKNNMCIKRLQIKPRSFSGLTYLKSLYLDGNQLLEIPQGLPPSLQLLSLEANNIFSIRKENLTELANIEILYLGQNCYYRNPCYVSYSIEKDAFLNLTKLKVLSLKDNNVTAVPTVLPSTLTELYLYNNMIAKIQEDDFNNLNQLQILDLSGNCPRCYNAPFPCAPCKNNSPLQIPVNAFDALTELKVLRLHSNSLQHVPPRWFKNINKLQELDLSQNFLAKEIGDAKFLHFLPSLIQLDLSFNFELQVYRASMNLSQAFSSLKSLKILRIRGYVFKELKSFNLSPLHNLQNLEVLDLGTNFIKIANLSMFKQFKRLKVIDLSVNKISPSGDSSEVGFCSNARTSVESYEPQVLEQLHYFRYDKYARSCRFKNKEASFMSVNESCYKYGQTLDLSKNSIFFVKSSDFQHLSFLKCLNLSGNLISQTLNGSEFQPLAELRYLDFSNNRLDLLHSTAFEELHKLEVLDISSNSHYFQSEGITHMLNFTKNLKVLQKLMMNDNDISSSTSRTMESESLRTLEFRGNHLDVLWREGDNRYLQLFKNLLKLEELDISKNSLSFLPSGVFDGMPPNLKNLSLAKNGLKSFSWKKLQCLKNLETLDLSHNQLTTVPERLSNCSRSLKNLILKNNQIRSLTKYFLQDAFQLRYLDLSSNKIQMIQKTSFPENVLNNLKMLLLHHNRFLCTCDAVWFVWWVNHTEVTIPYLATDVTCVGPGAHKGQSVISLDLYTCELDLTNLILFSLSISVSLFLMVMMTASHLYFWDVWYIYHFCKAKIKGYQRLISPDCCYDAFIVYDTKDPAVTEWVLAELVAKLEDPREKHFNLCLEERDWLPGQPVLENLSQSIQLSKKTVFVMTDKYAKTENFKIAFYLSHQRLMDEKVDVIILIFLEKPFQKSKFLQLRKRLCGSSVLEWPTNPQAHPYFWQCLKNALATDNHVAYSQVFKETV
Experiment: HEK293-Blue-hTLR-7 cells assay (SEAP reporter, R848 stimulation)
Format: cell-based
Details: HEK293-Blue-hTLR7 cells, R848, 20 hrs; 0.003 is the lowest tested concentration; read-out: HEK/hTLR7 IC50
Method: The following tests were carried out in order to determine the activity of the compounds of formula (I) or (Ia) in HEK293-Blue-hTLR-7/8/9 cells assay.
HEK293-Blue-hTLR-7 cells assay:
A stable HEK293-Blue-hTLR-7 cell line was purchased from InvivoGen (Cat.#: hkb-htlr7, San Diego, California, USA). These cells were originally designed for studying the stimulation of human TLR7 by monitoring the activation of NF-κB. A SEAP (secreted embryonic alkaline phosphatase) reporter gene was placed under the control of the IFN-β minimal promoter fused to five NF-κB and AP-1-binding sites. The SEAP was induced by activating NF-κB and AP-1 via stimulating HEK-Blue hTLR7 cells with TLR7 ligands. Therefore the reporter expression was declined by TLR7 antagonist under the stimulation of a ligand, such as R848 (Resiquimod), for incubation of 20 hrs. The cell culture supernatant SEAP reporter activity was determined using QUANTI-Blue™ kit (Cat.#: rep-qb1, Invivogen, San Diego, Ca, USA) at a wavelength of 640 nm, a detection medium that turns purple or blue in the presence of alkaline phosphatase.
HEK293-Blue-hTLR7 cells were incubated at a density of 250,000∼450,000 cells/mL in a volume of 170 µL in a 96-well plate in Dulbecco's Modified Eagle's medium (DMEM) containing 4.5 g/L glucose, 50 U/mL penicillin, […], […], 2 mM L-glutamine, 10% (v/v) heat-inactivated fetal bovine serum with addition of 20 µL test compound in a serial dilution in the presence of final DMSO at 1% and 10 µL of 20uM R848 in above DMEM, perform incubation under 37 °C in a CO2 incubator for 20 hrs. Then 20 µL of the supernatant from each well was incubated with 180 µL Quanti-blue substrate solution at 37 °C for 2 hrs and the absorbance was read at 620∼655 nm using a spectrophotometer. The signalling pathway that TLR7 activation leads to downstream NF-κB activation has been widely accepted, and therefore similar reporter assay was modified for evaluating TLR7 antagonist.

Compound	IC50 [nM]
C[C@@H]1CN(c2ccc(C#N)c3ncccc23)C[C@H](CN2Cc3ccc(N4CC5COCC(C4)N5)cc3C2)O1 [Example 72, 5-[(2R,6S)-2-methyl-6-[[5-(3-oxa-7,9-diazabicyclo[3.3.1]nonan-7-yl)isoindolin-2-yl]methyl]morpholin-4-yl]quinoline-8-carbonitrile]	45
C[C@@H]1CN(c2ccc(C#N)c3ncccc23)C[C@H](CN2Cc3ccc(N4C5CNCC4COC5)cc3C2)O1 [Example 46, 5-[(2R,6S)-2-methyl-6-[[5-(3-oxa-7,9-diazabicyclo[3.3.1]nonan-9-yl)isoindolin-2-yl]methyl]morpholin-4-yl]quinoline-8-carbonitrile]	74
C[C@@H]1CN(c2ccc(C#N)c3ncccc23)C[C@H](CN2Cc3ccc(N4CCNCC4)cc3C2)O1 [Example 21, 5-[(2R,6S)-2-methyl-6-[(5-piperazin-1-ylisoindolin-2-yl)methyl]morpholin-4-yl]quinoline-8-carbonitrile]	9
C[C@@H]1CN(c2ccc(C#N)c3ncccc23)C[C@H](CN2Cc3ccc(N4CCN[C@@H](C)C4)cc3C2)O1 [Example 64, 5-[(2R,6S)-2-methyl-6-[[5-[(3S)-3-methylpiperazin-1-yl]isoindolin-2-yl]methyl]morpholin-4-yl]quinoline-8-carbonitrile]	40
C[C@@H]1CN(c2ccc(C#N)c3ncsc23)C[C@H](CN2Cc3ccc(N4CCNCC4)cc3C2)O1 [Example 23, 7-[(2R,6S)-2-methyl-6-[(5-piperazin-1-ylisoindolin-2-yl)methyl]morpholin-4-yl]-1,3-benzothiazole-4-carbonitrile]	6
C[C@@H]1CN(c2ccc(C#N)n3nccc23)C[C@H](CN2CCc3cc(N4CCN(C)CC4)ccc3C2)O1 [Example 15, 4-[(2R,6S)-2-methyl-6-[[6-(4-methylpiperazin-1-yl)-3,4-dihydro-1H-isoquinolin-2-yl]methyl]morpholin-4-yl]pyrazolo[1,5-a]pyridine-7-carbonitrile]	37
C[C@@H]1CN(c2ccc(C#N)c3ncccc23)C[C@H](CN2CCc3cc(N4CCNCC4)ncc3C2)O1 [Example 70, 5-[(2R,6S)-2-methyl-6-[(6-piperazin-1-yl-3,4-dihydro-1H-2,7-naphthyridin-2-yl)methyl]morpholin-4-yl]quinoline-8-carbonitrile]	14
C[C@@H]1CN(c2ccc(C#N)c3nccnc23)C[C@H](CN2Cc3ccc(N4CCN(C5CC5)CC4)cc3C2)O1 [Example 35, 8-[(2S,6R)-2-[[5-(4-cyclopropylpiperazin-1-yl)isoindolin-2-yl]methyl]-6-methyl-morpholin-4-yl]quinoxaline-5-carbonitrile]	41
C[C@@H]1CN(c2ccc(C#N)c3ncccc23)C[C@H](CN2Cc3cc(N4CCNCC4)cc(F)c3C2)O1 [Example 59, 5-[(2S,6R)-2-[(4-fluoro-6-piperazin-1-yl-isoindolin-2-yl)methyl]-6-methyl-morpholin-4-yl]quinoline-8-carbonitrile]	18
5-[(2S,6R)-2-[[5-[3-(hydroxymethyl)piperazin-1-yl]isoindolin-2-yl]methyl]-6-methyl-morpholin-4-yl]quinoline-8-carbonitrile [Example 85]	20
C[C@@H]1CN(c2ccc(C#N)c3ncccc23)C[C@H](CN2Cc3cnc(N4CCNCC4)nc3C2)O1 [Example 63, 5-[(2R,6S)-2-methyl-6-[(2-piperazin-1-yl-5,7-dihydropyrrolo[3,4-d]pyrimidin-6-yl)methyl]morpholin-4-yl]quinoline-8-carbonitrile]	13
C[C@@H]1CN(c2ccc(C#N)c3ncccc23)C[C@H](CN2Cc3ccc(CN4CCCCC4)cc3C2)O1 [Example 74, 5-[(2R,6S)-2-methyl-6-[[5-(1-piperidylmethyl)isoindolin-2-yl]methyl]morpholin-4-yl]quinoline-8-carbonitrile]	59
C[C@@H]1CN(c2ccc(C#N)c3nccnc23)C[C@H](CN2CCc3cc(N4CCNCC4)ccc3C2)O1 [Example 13, 8-[(2R,6S)-2-methyl-6-[(6-piperazin-1-yl-3,4-dihydro-1H-isoquinolin-2-yl)methyl]morpholin-4-yl]quinoxaline-5-carbonitrile]	3
CC1CNCCN1c1ccc2c(c1)CN(C[C@H]1CN(c3ccc(C#N)c4ncccc34)C[C@@H](C)O1)C2 (stereo partly drawn) [Example 78, 5-[(2R,6S)-2-methyl-6-[[5-(2-methylpiperazin-1-yl)isoindolin-2-yl]methyl]morpholin-4-yl] quinoline-8-carbonitrile]	11
C[C@@H]1CN(c2ccc(C#N)n3nccc23)C[C@H](CN2CCc3cnccc3C2)O1 [Example R1, 4-[(2S,6R)-2-(3,4-dihydro-1H-2,6-naphthyridin-2-ylmethyl)-6-methyl-morpholin-4-yl]pyrazolo[1,5-a]pyridine-7-carbonitrile, reference compound]	550
C[C@@H]1CN(c2ccc(C#N)c3ncsc23)C[C@H](CN2Cc3cc(N4CCNCC4)cnc3C2)O1 [Example 25, 7-[(2R,6S)-2-methyl-6-[(3-piperazin-1-yl-5,7-dihydropyrrolo[3,4-b]pyridin-6-yl)methyl]morpholin-4-yl]-1,3-benzothiazole-4-carbonitrile]	11
C[C@@H]1CN(c2ccc(C#N)n3nccc23)C[C@H](CN2CCc3ccc(N4CCNCC4)cc3C2)O1 [Example 11, 4-[(2R,6S)-2-methyl-6-[(7-piperazin-1-yl-3,4-dihydro-1H-isoquinolin-2-yl)methyl]morpholin-4-yl]pyrazolo[1,5-a]pyridine-7-carbonitrile]	192
C[C@@H]1CN(c2ccc(C#N)c3ncccc23)C[C@H](CN2Cc3cc(N4CCNCC4)cnc3C2)O1 [Example 20, 5-[(2R,6S)-2-methyl-6-[(3-piperazin-1-yl-5,7-dihydropyrrolo[3,4-b]pyridin-6-yl)methyl]morpholin-4-yl]quinoline-8-carbonitrile]	14
C[C@@H]1CN(c2ccc(C#N)c3ncccc23)C[C@H](CN2Cc3ccc(N4CCNCC4)cc3C(O)C2)O1 (stereo partly drawn) [Example 75, 5-[(2S,6R)-2-[(4-hydroxy-6-piperazin-1-yl-3,4-dihydro-1H-isoquinolin-2-yl)methyl]-6-methyl-morpholin-4-yl]quinoline-8-carbonitrile]	42
CC1CN(c2ccc3c(c2)CN(C[C@H]2CN(c4ccc(C#N)c5nccnc45)C[C@@H](C)O2)C3)CCN1 (stereo partly drawn) [Example 36, 8-[(2R,6S)-2-methyl-6-[[5-(3-methylpiperazin-1-yl)isoindolin-2-yl]methyl]morpholin-4-yl]quinoxaline-5-carbonitrile]	10
C[C@@H]1CN(c2ccc(C#N)c3ncccc23)C[C@H](CN2Cc3ccc(N4CC(N)C4)cc3C2)O1 [Example 77, 5-[(2S,6R)-2-[[5-(3-aminoazetidin-1-yl)isoindolin-2-yl]methyl]-6-methyl-morpholin-4-yl]quinoline-8-carbonitrile]	32
C[C@@H]1CN(c2ccc(C#N)n3nccc23)C[C@H](CN2Cc3ccc(C4CCNCC4)cc3C2)O1 [Example 8, 4-[(2R,6S)-2-methyl-6-[[5-(4-piperidyl)isoindolin-2-yl]methyl]morpholin-4-yl]pyrazolo[1,5-a]pyridine-7-carbonitrile]	206
